Here are results for two compounds from US20100168054A1, “Functionalized Beta 1,6 Glucosamine Disaccharides and Process for Their Preparation” (OM PHARMA, priority 2006, published 2010).

SMILES strings stand for the structures.

Usually IC50 stands for the concentration that inhibits the measured activity by half.

One assay has as its system rat mast cells. Briefly: Histamine secretion (compound 48/80-stimulated). The class given is cell-based. The note with it: Rattus norvegicus, Mast cell, 2 min, compound 48/80 0.1 μg/ml, 37° C., read-out: IC50. From the text:
Using an in vitro rat model of mast cell degranulation (proposed by the CRO CEREP, catalog number 2006: 771-c), we aimed to investigate whether the synthetic molecules OM-174-DP (compound 1b) OM-174-MP-PD (19), OM-174-MP-EP (33), OM-174-MP-CM (35c) and OM-174-MP-PR (17) would inhibit histamine secretion by compound 48/80-stimulated mastocytes. The protocol used is briefly summarized below:
The results are expressed as a percent of control specific activity ((measured specific activity/control specific activity)×100) obtained in the presence of the test compounds. The IC50 values (concentration causing a half-maximal inhibition of control specific activity) were determined by non-linear regression analysis of the inhibition curves generated with mean replicate values using Hill equation curve fitting (Y=D+[(A−D)/(1+(C/C50)nH)], where Y=specific activity, D=minimum specific activity, A=maximum specific activity, C=compound concentration, C50=IC50, and nH=slope factor). This analysis was performed using a software developed at Cerep (Hill software) and validated by comparison with data generated by the commercial software SigmaPlot® 4.0 for Windows® (© 1997 by SPSS Inc.).
In each experiment, the reference compound was tested concurrently with the test compounds in order to assess the assay suitability. It was tested at several concentrations (for IC50 value determination), and the data were compared with historical values determined at CEREP. The assay was rendered valid if the suitability criteria were met, in accordance with the corresponding Standard Operating Procedure.

A further assay concerns the target T1, TLR2 (Homo sapiens, UniProt O60603).
T1 construct: host or cells: HEK293
Description: HEK-TLR2 IL-8 secretion. The format is cell-based. The following applies: 24 h. From the text:
(§1) The HEK293 cell line was chosen for its null or low basal expression of the TLR genes. These cells enable efficient monitoring of TLR activity using ELISA analysis such as IL-8 titration or reporter-based systems that monitor TLR-induced NF-κB activation. HEK-TLR2 cells (Invivogen, Toulouse, France) are engineered HEK293 cells stably transfected with multiple genes from the TLR2 pathway that include TLR2 and genes participating in the recognition or involved in the signaling cascade. These cells secrete IL-8 after TLR2 stimulation. The experiments were performed according to manufacturers' instructions. Briefly, 2×10^4 cells/well (200 ul RPMI) are incubated at 37° C. during 3 days (5% CO2). The medium is removed, and 90 ul RPMi+5% FCS is added to the wells Then the agonists and controls are added (10 ul/well). The cells return to the incubator for 24 hours. The supernatants are collected and the IL-8 ELISA is performed according to manufacturer's instructions

In a further assay the target is T2, TLR4 (Homo sapiens, UniProt O00206+Q9Y6Y9).
T2 construct: expressed in transfected cells; host or cells: HEK293
T2 sequence (O00206 24-839): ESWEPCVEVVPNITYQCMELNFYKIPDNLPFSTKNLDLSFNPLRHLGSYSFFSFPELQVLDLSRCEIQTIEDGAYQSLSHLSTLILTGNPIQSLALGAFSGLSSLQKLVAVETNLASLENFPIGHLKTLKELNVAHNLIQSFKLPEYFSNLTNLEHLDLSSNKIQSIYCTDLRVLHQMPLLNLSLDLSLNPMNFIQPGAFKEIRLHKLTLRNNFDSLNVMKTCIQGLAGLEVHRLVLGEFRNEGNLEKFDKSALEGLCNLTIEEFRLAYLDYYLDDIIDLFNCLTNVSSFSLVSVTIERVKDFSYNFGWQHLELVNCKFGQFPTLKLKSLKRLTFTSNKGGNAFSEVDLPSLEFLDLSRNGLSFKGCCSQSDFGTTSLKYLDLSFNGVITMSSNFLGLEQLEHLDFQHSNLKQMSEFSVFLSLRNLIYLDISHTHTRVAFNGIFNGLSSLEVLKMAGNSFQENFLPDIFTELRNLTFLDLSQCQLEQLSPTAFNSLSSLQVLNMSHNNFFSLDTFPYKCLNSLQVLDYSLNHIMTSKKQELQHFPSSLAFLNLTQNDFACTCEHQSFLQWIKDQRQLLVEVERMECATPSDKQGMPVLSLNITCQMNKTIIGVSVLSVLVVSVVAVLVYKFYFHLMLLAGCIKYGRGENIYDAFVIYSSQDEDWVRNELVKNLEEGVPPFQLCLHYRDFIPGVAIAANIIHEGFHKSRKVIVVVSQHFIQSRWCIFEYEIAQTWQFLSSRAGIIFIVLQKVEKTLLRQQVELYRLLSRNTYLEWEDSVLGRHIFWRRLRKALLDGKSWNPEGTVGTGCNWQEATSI
T2 sequence (Q9Y6Y9 17-160 limits assumed): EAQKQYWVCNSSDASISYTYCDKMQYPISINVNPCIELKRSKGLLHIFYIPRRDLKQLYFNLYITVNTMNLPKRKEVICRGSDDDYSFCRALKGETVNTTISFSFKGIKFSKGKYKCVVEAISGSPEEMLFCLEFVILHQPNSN
Briefly: HEK-MD2-TLR4-CD14 IL-8 secretion. The format is cell-based. The note with it: 24 h.
Source text: as §1
HEK-MD2-TLR4-CD14 are highly sensitive to LPS. They were obtained by stable transfection of HEK293 cells with the TLR4, MD2 and CD14 genes and an NF-κB-inducible reporter system. They secrete IL-8. We used the same experimental procedure as for the other HEK cell lines described above.

Assay [1] has as its system THP1-Blue cells (express naturally both TLR2 and TLR4). Description: THP1-Blue NF-κB/AP-1-inducible SEAP reporter. The format is cell-based, human. The note with it: for Optical density read at 625 nm, mean of duplicates: 48 h. How it is done: A first series of experiment was performed on THP-1 cells, which express naturally both TLR2 and TLR4. THP-1 cells are human peripheral blood monocytic cells. Monocytes play a key role in innate immunity and express most TLRs at various levels. As for the primary cells, THP-1 cells activate NF-κB and other transcription factors in response to TLR ligands
To facilitate analysis of TLR response in monocytes, InvivoGen (Toulouse, France) provides THP-1 clones stably transfected with an NF-κB-inducible reporter system, called THP1-Blue™. THP-1 Blue cells were stably transfected with a reporter plasmid expressing a secreted embryonic alkaline phosphatase (SEAP) gene under the control of a promoter inducible by several transcription factors such as NF-κB and AP-1. Upon TLR stimulation, THP1-Blue™ cells activate transcription factors and subsequently the secretion of SEAP which is easily detectable when using QUANTI-Blue\u2122a medium that turns purple/blue in the presence of SEAP.
The cells were stimulated with the controls and compounds of the invention according to manufacturer's instructions. Results: Increased OD at 625 Nm after 48 Hours: The results for the controls (negative=LPS K12CD25 ultrapure, a TLR4 agonist; and PAM3CSK4=positive, a TLR2 agonist) are provided in the table below. The results (expressed as OD of arbitrary units) show the mean values (from duplicate measures) of Optical density read at 625 nm, 48 h after stimulation at 37° C. with the controls (up to 1000 ng/ml): […]

T1 sequence (O60603 21-784): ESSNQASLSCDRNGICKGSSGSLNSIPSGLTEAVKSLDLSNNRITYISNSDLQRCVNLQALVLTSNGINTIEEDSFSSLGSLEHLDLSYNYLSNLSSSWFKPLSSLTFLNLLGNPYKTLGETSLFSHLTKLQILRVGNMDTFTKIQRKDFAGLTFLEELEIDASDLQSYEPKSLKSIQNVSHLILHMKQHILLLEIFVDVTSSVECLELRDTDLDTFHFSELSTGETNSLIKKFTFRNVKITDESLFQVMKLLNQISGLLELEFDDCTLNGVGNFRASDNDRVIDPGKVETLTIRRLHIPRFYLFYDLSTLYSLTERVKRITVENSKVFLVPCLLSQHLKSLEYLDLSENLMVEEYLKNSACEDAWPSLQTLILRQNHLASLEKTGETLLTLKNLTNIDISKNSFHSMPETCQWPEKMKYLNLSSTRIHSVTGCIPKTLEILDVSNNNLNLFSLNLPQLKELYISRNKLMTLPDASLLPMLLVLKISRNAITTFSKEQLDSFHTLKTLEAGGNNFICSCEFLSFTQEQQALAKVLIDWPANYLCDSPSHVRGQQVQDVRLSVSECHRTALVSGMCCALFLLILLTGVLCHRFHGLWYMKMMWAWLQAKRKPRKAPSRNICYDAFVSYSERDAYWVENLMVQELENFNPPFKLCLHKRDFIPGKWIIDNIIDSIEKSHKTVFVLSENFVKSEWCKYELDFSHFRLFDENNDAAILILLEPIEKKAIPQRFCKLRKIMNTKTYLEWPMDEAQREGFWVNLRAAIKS

Turning to `CCCCCCCCCCCC(=O)O[C@H](CCCCCCCCCCC)CC(=O)NC1C(OCC2OC(OP(=O)(O)O)C(NC(=O)C[C@H](O)CCCCCCCCCCC)C(O)C2O)OC(CO)C(OP(=O)(O)O)C1O` (stereo partly drawn) [compound 1b, 2-Deoxy-6-O-[2-deoxy-4-O-(dihydroxyphosphoryl)-2-[(R)-3-dodecanoyloxytetradecanoylamino]-β-D-glucopyranosyl]-2-[(R)-3-hydroxytetradecanoylamino]-α-D-glucopyranosyl dihydrogenophosphate], the IC50 in the assay on rat mast cells is 0.086 µM.

Regarding `CCCCCCCCCCCC(=O)O[C@H](CCCCCCCCCCC)CC(=O)N[C@H]1[C@H](OC[C@H]2O[C@H](O)[C@H](NC(=O)C[C@H](O)CCCCCCCCCCC)[C@@H](O)[C@@H]2O)O[C@H](CO)[C@@H](OP(=O)(O)O)[C@@H]1O` [compound 16, 2-Deoxy-6-O-[2-deoxy-4-O-(dihydroxyphosphoryl)-2-[(R)-3-dodecanoyloxytetradecanoylamino]-β-D-glucopyranosy]-2-[(R)-3-hydroxytetradecanoylamino]-α-D-glucopyranose], the “IL-8 secretion, mean” value on TLR2 (14 ng/ml) is 0.07 pg/mL; on TLR2 (41 ng/ml), 0.09 pg/mL; on TLR2 (124 ng/ml) it was 0.15 pg/mL; on TLR2 (370 ng/ml), 0.12 pg/mL; on TLR2 (1111 ng/ml) it was 0.15 pg/mL; on TLR2 (3333 ng/ml), 0.19 pg/mL. In addition, the “IL-8 secretion, mean” value is 0.27 pg/mL on TLR2 (10000 ng/ml); 1.75 pg/mL at TLR4 (14 ng/ml); 1.68 pg/mL on TLR4 (41 ng/ml); 1.62 pg/mL at TLR4 (124 ng/ml); 1.66 pg/mL at TLR4 (370 ng/ml); 1.60 pg/mL at TLR4 (1111 ng/ml). For the same compound, the “IL-8 secretion, mean” value at TLR4 (3333 ng/ml) came out at 1.63 pg/mL; at TLR4 (10000 ng/ml), 1.90 pg/mL. Further, the “activation of THP-1 cells (in words)” value in assay [1] was “weaker”. The “Optical density read at 625 nm, mean of duplicates” value in assay [1] (14 ng/ml) stood at 0.15 OD; in assay [1] (41 ng/ml), 0.13 OD; in assay [1] (124 ng/ml), 0.15 OD; in assay [1] (370 ng/ml), 0.16 OD; in assay [1] (1111 ng/ml) it was 0.17 OD; in assay [1] (3333 ng/ml), 0.18 OD. Moreover, the “Optical density read at 625 nm, mean of duplicates” value in assay [1] (10000 ng/ml) came to 0.22 OD.
